Patent US8263609B2, “Tetrahydro-β-carbolin-sulfonamide derivatives as 5-Ht6 ligands” (Laboratorios Del Dr. Esteve, S.A., priority 2005, dated 2012)
pKi: −log10 of the molar value.

How the values were obtained:
[1] = molecular target: T1, 5HT6-human recombinant receptor (Homo sapiens, UniProt P50406); assay: Binding to Serotonin Receptor 5HT6 ([3H]-LSD radioligand displacement, HEK-293 cell membranes); conditions: [3H]-LSD 2.7 nM, HEK-293 membranes; for pKi: non-linear regression EBDA/LIGAND; for inhibition at 0.1 µM: compound at 10^−7 M, 60 min, 37° C.
T1 construct: purchased Receptor Biology; host or cells: HEK-293 cell membranes
Protocol: Binding to Serotonin Receptor 5HT6
Cell membranes of HEK-293 cells expressing the 5HT6-human recombinant receptor were supplied by Receptor Biology. In said membranes the receptor concentration is 2.18 pmol/mg protein and the protein concentration is 9.17 mg/ml. The experimental protocol follows the method of B. L. Roth et al. [B. L. Roth et al., The Journal of Pharmacology and Experimental Therapeutics, 1994, 268, 1403] with the following slight changes. The respective part of the literature description is hereby incorporated by reference and forms part of the disclosure.
The commercial membrane is diluted (1:40 dilution) with the binding buffer: 50 mM Tris-HCl, 10 mM MgCl2, 0.5 mM EDTA (pH 7.4). The radioligand used is [^3H]-LSD at a concentration of 2.7 nM with a final volume of 200 μl. incubation is initiated by adding 100 μl of membrane suspension, (≈22.9 μg membrane protein), and is prolonged for 60 minutes at a temperature of 37° C. The incubation is ended by fast filtration in a Brandel Cell Harvester through fiber glass filters made by Schleicher & Schuell GF 3362 pretreated with a solution of polyethylenimine at 0.5%. The filters are washed three times with three milliliters of buffer Tris-HCl 50 mM pH 7.4. The filters are transferred to flasks and 5 ml of Ecoscint H liquid scintillation cocktail are added to each flask. The flasks are allowed to reach equilibrium for several hours before counting with a Wallac Winspectral 1414 scintillation counter. Non-specific binding is determined in the presence of 100 μM of serotonin. Tests were made in triplicate. The inhibition constants (Ki, nM) were calculated by non-linear regression analysis using the program EBDA/LIGAND described in Munson and Rodbard, Analytical Biochemistry, 1980, 107, 220, which is hereby incorporated by reference and forms part of the disclosure.

T1 sequence (P50406 whole entry): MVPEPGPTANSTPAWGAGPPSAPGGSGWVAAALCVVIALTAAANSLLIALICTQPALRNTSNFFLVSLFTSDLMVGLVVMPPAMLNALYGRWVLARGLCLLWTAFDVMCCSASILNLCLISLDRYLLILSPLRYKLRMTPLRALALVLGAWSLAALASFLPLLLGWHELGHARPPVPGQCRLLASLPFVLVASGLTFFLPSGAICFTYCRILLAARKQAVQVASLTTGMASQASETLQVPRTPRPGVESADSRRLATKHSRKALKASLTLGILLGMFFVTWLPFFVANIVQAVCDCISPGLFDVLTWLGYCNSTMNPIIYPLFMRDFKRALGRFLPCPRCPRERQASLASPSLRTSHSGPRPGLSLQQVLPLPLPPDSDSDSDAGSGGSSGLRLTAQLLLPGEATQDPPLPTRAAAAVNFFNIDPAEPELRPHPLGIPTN

CN1CCc2c([nH]c3ccc(NS(=O)(=O)c4cccc5c(N(C)C)cccc45)cc23)C1
melting point: 241 to 242 °C

CN1CCc2c([nH]c3ccc(NS(=O)(=O)c4cc5ccccc5o4)cc23)C1
melting point: 165 to 166 °C

CN1CCc2c([nH]c3ccc(NS(=O)(=O)c4ccc(F)c5ccccc45)cc23)C1
melting point: 236 to 238 °C

CN1CCc2c([nH]c3ccc(NS(=O)(=O)c4ccc5ccc(Cl)cc5c4)cc23)C1
melting point: 230 to 231 °C

CCN1CCc2c([nH]c3ccc(NS(=O)(=O)c4ccc5ccccc5c4)cc23)C1
melting point: 174 to 176 °C

O=S(=O)(Nc1ccc2[nH]c3c(c2c1)CCN(CC(F)(F)F)C3)c1c(Cl)nc2sccn12
melting point: 232 to 233 °C

O=S(=O)(Nc1ccc2[nH]c3c(c2c1)CCN(CC(F)(F)F)C3)c1ccc2c(Cl)cccc2c1
melting point: 164 to 166 °C

O=S(=O)(Nc1ccc2[nH]c3c(c2c1)CCN(CC(F)(F)F)C3)c1csc2ccccc12
melting point: 173 to 175 °C

CN1CCc2c([nH]c3ccc(NS(=O)(=O)c4cccc5ccccc45)cc23)C1
melting point: 245 to 246 °C

CN1CCc2c([nH]c3cccc(NS(=O)(=O)c4c(Cl)nc5sccn45)c23)C1
melting point: 252 to 253 °C

CN1CCc2c([nH]c3cccc(NS(=O)(=O)c4csc5ccccc45)c23)C1
melting point: 236 to 237 °C

CN1CCc2c([nH]c3cccc(NS(=O)(=O)c4cccc5ccccc45)c23)C1
melting point: 217 to 218 °C

CN1CCc2c([nH]c3cccc(NS(=O)(=O)c4ccc5c(Cl)cccc5c4)c23)C1
melting point: 245 to 247 °C

CN1CCc2c([nH]c3cc(NS(=O)(=O)c4csc5ccccc45)ccc23)C1
melting point: 255 to 257 °C

CN1CCc2c([nH]c3cc(NS(=O)(=O)c4ccc5c(Cl)cccc5c4)ccc23)C1
melting point: 257 to 259 °C

CN1CCc2c([nH]c3c(NS(=O)(=O)c4cccc5c(Cl)cccc45)cccc23)C1
melting point: 251 to 252 °C

CN1CCc2c([nH]c3c(NS(=O)(=O)c4ccc5c(Cl)cccc5c4)cccc23)C1
melting point: 256 to 257 °C

CN1CCc2c([nH]c3c(NS(=O)(=O)c4cccc5c(N(C)C)cccc45)cccc23)C1
melting point: 225 to 226 °C

CN1CCc2c([nH]c3c(NS(=O)(=O)c4c(Cl)nc5sccn45)cccc23)C1
melting point: 230 to 232 °C

CN1CCc2c([nH]c3c(NS(=O)(=O)c4cccc5ccccc45)cccc23)C1
melting point: 259 to 260 °C

CN1CCc2c([nH]c3c(NS(=O)(=O)c4cccc5nsnc45)cccc23)C1
melting point: 238 to 240 °C

CN1CCc2c([nH]c3c(NS(=O)(=O)c4cc5ccccc5o4)cccc23)C1
melting point: 229 to 231 °C

CN1CCc2c([nH]c3c(NS(=O)(=O)c4cccc5nonc45)cccc23)C1
melting point: 246 to 247 °C

Cc1c(S(=O)(=O)Nc2ccc3[nH]c4c(c3c2)CCN(C)C4)sc2ccc(Cl)cc12
melting point: 259 to 260 °C

CN1CCc2c([nH]c3ccc(NS(=O)(=O)c4cccc5nsnc45)cc23)C1
melting point: 244 to 245 °C

CC(=O)Nc1ccc(S(=O)(=O)Nc2ccc3[nH]c4c(c3c2)CCN(C)C4)cc1
melting point: 232 to 234 °C

CN1CCc2c([nH]c3ccc(NS(=O)(=O)c4ccc(N)cc4)cc23)C1
melting point: 236 to 237 °C

CC(=O)Nc1nc(C)c(S(=O)(=O)Nc2ccc3[nH]c4c(c3c2)CCN(C)C4)s1
melting point: 199 to 200 °C

CN1CCc2c([nH]c3ccc(NS(=O)(=O)c4c(Cl)nc5sccn45)cc23)C1 [Example 1, 6-chloro-imidazo[2,1-b]thiazole-5-sulfonic acid (2-methyl-2,3,4,9-tetrahydro-1H-β-carbolin-6-yl)-amide]
pKi [1]: 9.05
inhibition at 0.1 µM [1]: 80.7%
melting point: 232 to 233 °C

CN1CCc2c([nH]c3ccc(NS(=O)(=O)c4csc5ccccc45)cc23)C1 [Example 2, Benzo[b]thiophene-3-sulfonic acid (2-methyl-2,3,4,9-tetrahydro-1H-β-carbolin-6-yl)-amide]
pKi [1]: 8.55
inhibition at 0.1 µM [1]: 79.5%
melting point: 224 to 226 °C

CN1CCc2c([nH]c3ccc(NS(=O)(=O)c4ccc5c(Cl)cccc5c4)cc23)C1 [Example 4, 5-Chloro-naphthalene-2-sulfonic acid (2-methyl-2,3,4,9-tetrahydro-1H-β-carbolin-6-yl)-amide]
inhibition at 0.1 µM [1]: 70.6%

CN1CCc2c([nH]c3ccc(NS(=O)(=O)c4ccc5ccccc5c4)cc23)C1 [Example 12, Naphthalene-2-sulfonic acid (2-methyl-2,3,4,9-tetrahydro-1H-β-carbolin-6-yl)-amide]
pKi [1]: 7.80
inhibition at 0.1 µM [1]: 89.7%
melting point: 244 to 245 °C

Cc1ccc2sc(S(=O)(=O)Nc3ccc4[nH]c5c(c4c3)CCN(C)C5)cc2c1 [Example 13, 5-Methyl-benzo[b]thiophene-2-sulfonic acid (2-methyl-2,3,4,9-tetrahydro-1H-β-carbolin-6-yl)-amide]
inhibition at 0.1 µM [1]: 71.1%
melting point: 241 to 242 °C

CN1CCc2c([nH]c3ccc(NS(=O)(=O)c4ccc5cc(Cl)ccc5c4)cc23)C1 [Example 16, 6-Chloro-naphthalene-2-sulfonic acid (2-methyl-2,3,4,9-tetrahydro-1H-β-carbolin-6-yl)-amide]
inhibition at 0.1 µM [1]: 85%
melting point: 174 to 175 °C

CCN1CCc2c([nH]c3ccc(NS(=O)(=O)c4c(Cl)nc5sccn45)cc23)C1 [Example 19, 6-Chloro-imidazo[2,1-b]thiazole-5-sulfonic acid (2-ethyl-2,3,4,9-tetrahydro-1H-β-carbolin-6-yl)-amide]
pKi [1]: 8.96
inhibition at 0.1 µM [1]: 97%
melting point: 219 to 222 °C

CCN1CCc2c([nH]c3ccc(NS(=O)(=O)c4csc5ccccc45)cc23)C1 [Example 22, Benzo[b]thiophene-3-sulfonic acid (2-ethyl-2,3,4,9-tetrahydro-1H-β-carbolin-6-yl)-amide]
pKi [1]: 7.44
inhibition at 0.1 µM [1]: 84.6%
melting point: 215 to 216 °C

CCCN1CCc2c([nH]c3ccc(NS(=O)(=O)c4c(Cl)nc5sccn45)cc23)C1 [Example 26, 6-Chloro-imidazo[2,1-b]thiazole-5-sulfonic acid (2-propyl-2,3,4,9-tetrahydro-1H-β-carbolin-6-yl)-amide]
pKi [1]: 8.70
inhibition at 0.1 µM [1]: 87.9%
melting point: 206 to 207 °C

CC(C)N1CCc2c([nH]c3ccc(NS(=O)(=O)c4c(Cl)nc5sccn45)cc23)C1 [Example 27, 6-Chloro-imidazo[2,1-b]thiazole-5-sulfonic acid (2-isopropyl-2,3,4,9-tetrahydro-1H-β-carbolin-6-yl)-amide]
inhibition at 0.1 µM [1]: 81.8%
melting point: 234 to 235 °C

CN1CCc2c([nH]c3ccc(NS(=O)(=O)c4ccc5ccccc5c4)cc23)C1c1ccccc1 (stereo not drawn) [Example 28, Naphthalene-2-sulfonic acid (2-methyl-1-phenyl-2,3,4,9-tetrahydro-1H-β-carbolin-6-yl)-amide]
melting point: 255 to 260 °C

CN1CCc2c([nH]c3ccc(NS(=O)(=O)c4csc5ccccc45)cc23)C1c1ccccc1 (stereo not drawn) [Example 29, Benzo[b]thiophene-3-sulfonic acid (2-methyl-1-phenyl-2,3,4,9-tetrahydro-1H-β-carbolin-6-yl)-amide]
melting point: 232 to 234 °C

CN1CCc2c([nH]c3cc(NS(=O)(=O)c4c(Cl)nc5sccn45)ccc23)C1 [Example 35, 6-Chloro-imidazo[2,1-b]thiazole-5-sulfonic acid (2-methyl-2,3,4,9-tetrahydro-1H-β-carbolin-7-yl)-amide]
pKi [1]: 8.10
inhibition at 0.1 µM [1]: 90%
melting point: 225 to 227 °C

CN1CCc2c([nH]c3c(NS(=O)(=O)c4ccc5ccccc5c4)cccc23)C1 [Example 38, Naphthalene-2-sulfonic acid (2-methyl-2,3,4,9-tetrahydro-1H-β-carbolin-8-yl)-amide]
inhibition at 0.1 µM [1]: 73.5%
melting point: 240 to 242 °C

CN1CCc2c([nH]c3c(NS(=O)(=O)c4csc5ccccc45)cccc23)C1 [Example 45, Benzo[b]thiophene-3-sulfonic acid (2-methyl-2,3,4,9-tetrahydro-1H-β-carbolin-8-yl)-amide]
pKi [1]: 7.53
inhibition at 0.1 µM [1]: 87.1%
melting point: 225 to 226 °C

O=S(=O)(Nc1ccc2[nH]c3c(c2c1)CCNC3)c1c(Cl)nc2sccn12 [Example 47, 6-chloro-imidazo[2,1-b]thiazole-5-sulfonic acid (2,3,4,9-tetrahydro-1H-β-carbolin-6-yl)-amide]
melting point: 242 to 244 °C
